Two molecules from patent US20260077051A1, “COMPOUNDS FOR THE DEGRADATION OF EGFR KINASE” (BeOne Medicines I GmbH, priority 2023, published 2026) can be followed below.

Test [1] deals with T1, EGFR L858R (BaF3-L858R cells) (Homo sapiens, UniProt P00533, L858R).
T1 construct: host or cells: BaF3
Briefly: EGFR degradation in BaF3-L858R cells (HTRF assay). Type of test: cell-based. Conditions: 16 h treatment; for DC50: IC50(DC50) of EGFR degradation; for Dmax: maximum percentage of inhibition (degradation). A digest of the protocol:
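BaF3-L858R cells were exposed for 16 h at 37° C to 8 doses, 5-fold dilutions starting at 10 uM final, in 0.1% DMSO medium. Lysates were incubated overnight with HTRF antibodies and read at 665/620 nm. Degradation was taken relative to DMSO control, and DC50 and Dmax came from a four-parameter fit.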

In test [2] the target is T2, EGFR-L858R/C797S (H1975-clone #8 cells) (Homo sapiens, UniProt P00533, C797S/L858R).
T2 construct: expressed in transfected cells; host or cells: H1975 (lentiviral transduction, endogenous EGFR knocked out, single clone #8)
Briefly: EGFR degradation in H1975-clone#8 (L858R/C797S) cells (HTRF assay). Type of test: cell-based. Conditions: 16 h treatment; for DC50: IC50(DC50) of EGFR degradation; for Dmax: maximum percentage of inhibition (degradation). A digest of the protocol:
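H1975 cells engineered to carry only homozygous exogenous EGFR L858R/C797S (clone #8) treated 16 h at 37 °C with compound, 8 doses from 10 uM in 5-fold steps, 0.1% DMSO. Remaining EGFR in lysates measured by HTRF; degradation percentage relative to DMSO control, DC50 and Dmax from 4-parameter fit.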

T2 sequence (P00533 25-1210 C797S/L858R): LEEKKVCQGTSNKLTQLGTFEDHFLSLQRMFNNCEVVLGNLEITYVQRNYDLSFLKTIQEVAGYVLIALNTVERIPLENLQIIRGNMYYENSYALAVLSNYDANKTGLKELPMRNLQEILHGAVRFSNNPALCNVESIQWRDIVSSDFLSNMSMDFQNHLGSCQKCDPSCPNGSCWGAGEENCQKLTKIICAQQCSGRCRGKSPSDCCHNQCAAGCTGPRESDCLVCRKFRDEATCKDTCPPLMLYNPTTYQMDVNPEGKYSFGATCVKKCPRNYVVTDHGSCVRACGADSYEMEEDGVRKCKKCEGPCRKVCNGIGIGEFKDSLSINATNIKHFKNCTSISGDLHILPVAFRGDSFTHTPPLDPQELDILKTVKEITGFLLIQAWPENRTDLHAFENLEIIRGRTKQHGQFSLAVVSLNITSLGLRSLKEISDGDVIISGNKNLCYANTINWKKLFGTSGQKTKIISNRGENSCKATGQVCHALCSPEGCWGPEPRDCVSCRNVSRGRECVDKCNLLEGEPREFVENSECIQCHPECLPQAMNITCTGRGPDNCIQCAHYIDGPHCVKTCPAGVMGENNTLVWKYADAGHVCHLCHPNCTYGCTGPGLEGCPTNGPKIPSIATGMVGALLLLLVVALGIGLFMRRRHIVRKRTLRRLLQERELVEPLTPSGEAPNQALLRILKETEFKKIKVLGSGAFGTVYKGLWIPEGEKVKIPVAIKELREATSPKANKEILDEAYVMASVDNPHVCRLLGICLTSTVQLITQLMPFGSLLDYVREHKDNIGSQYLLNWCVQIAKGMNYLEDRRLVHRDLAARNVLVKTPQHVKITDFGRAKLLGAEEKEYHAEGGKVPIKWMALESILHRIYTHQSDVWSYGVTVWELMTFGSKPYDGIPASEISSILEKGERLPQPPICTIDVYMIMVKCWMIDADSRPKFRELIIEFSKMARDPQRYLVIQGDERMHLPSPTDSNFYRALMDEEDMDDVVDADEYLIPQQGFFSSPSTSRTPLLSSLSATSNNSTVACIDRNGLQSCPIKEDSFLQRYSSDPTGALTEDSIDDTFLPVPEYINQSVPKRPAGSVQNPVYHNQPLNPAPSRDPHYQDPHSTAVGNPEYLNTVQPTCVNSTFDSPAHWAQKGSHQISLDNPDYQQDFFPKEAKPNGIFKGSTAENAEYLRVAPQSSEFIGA
T1 sequence (P00533 25-1210 L858R): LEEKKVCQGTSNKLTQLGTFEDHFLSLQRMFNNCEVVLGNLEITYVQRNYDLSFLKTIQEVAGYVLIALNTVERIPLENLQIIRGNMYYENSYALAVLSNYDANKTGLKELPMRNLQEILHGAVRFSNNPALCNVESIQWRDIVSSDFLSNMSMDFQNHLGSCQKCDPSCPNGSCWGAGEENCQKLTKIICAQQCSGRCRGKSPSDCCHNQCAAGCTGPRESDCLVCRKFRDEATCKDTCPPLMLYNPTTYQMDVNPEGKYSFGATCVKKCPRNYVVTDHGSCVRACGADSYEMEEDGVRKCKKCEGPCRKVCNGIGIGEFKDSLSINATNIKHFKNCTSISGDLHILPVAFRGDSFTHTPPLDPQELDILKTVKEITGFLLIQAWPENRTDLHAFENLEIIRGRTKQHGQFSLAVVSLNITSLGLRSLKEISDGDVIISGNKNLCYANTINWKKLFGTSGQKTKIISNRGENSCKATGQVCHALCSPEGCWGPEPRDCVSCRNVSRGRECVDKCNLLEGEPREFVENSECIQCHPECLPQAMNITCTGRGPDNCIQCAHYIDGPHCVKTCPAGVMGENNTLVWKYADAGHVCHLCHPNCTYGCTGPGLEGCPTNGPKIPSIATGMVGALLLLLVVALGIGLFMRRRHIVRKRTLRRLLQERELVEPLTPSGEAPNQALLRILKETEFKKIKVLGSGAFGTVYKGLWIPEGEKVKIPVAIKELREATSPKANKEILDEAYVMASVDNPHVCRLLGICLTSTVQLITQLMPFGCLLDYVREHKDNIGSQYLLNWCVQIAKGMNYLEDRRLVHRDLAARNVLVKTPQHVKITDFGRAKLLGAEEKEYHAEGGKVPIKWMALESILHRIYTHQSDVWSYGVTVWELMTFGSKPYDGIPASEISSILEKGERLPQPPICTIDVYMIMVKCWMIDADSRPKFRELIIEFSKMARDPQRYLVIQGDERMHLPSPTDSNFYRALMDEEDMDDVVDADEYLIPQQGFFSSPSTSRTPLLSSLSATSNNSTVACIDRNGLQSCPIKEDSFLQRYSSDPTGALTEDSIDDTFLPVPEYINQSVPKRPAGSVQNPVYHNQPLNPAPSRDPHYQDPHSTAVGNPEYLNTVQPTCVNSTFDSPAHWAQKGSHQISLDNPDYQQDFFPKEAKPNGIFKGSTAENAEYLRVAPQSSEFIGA

One may read the DC50 as the midpoint of the concentration-degradation curve. A high value points to degradation only at high concentration. The term Dmax denotes the greatest extent of degradation seen. Take `Cc1cc2cc(n1)-c1cnn(C)c1OCC[C@]1(C)C[C@H]1CN1/C(=N/C2=O)Nc2ccc(N3CCN(C4CCN(c5cc(F)c([C@H]6CCC(=O)NC6=O)c(F)c5)CC4)CC3)cc21` [Example 17, (R)-3-(2,6-difluoro-4-(4-(4-((7^1R,7^2S,E)-1^1,2^6,7^2-trimethyl-3-oxo-5^2,5^3-dihydro-1^1H,5^1H-10-oxa-4-aza-5 (2,1)-benzo[d]imidazola-2 (2,4)-pyridina-1 (4,5)-pyrazola-7 (1,2)-cyclopropanacyclodecaphane-5^6-yl)piperazin-1-yl)piperidin-1-yl)phenyl)piperidine-2,6-dione]: in test [1], the DC50 was 2.32 nM and the Dmax turned out to be 84.1%. Moreover, in test [2], the DC50 came out at 1.6 nM and the Dmax is 68.7%.

Consider `Cc1cc2cc(n1)-c1cnn(C)c1OCC[C@H]1C[C@@H]1CN1/C(=N/C2=O)Nc2ccc(N3CCN([C@H]4CCN(c5cc(F)c(C6CCC(=O)NC6=O)nc5C)C[C@H]4F)CC3)cc21` (stereo partly drawn) [Example 30, 3-(5-((3R,4S)-4-(4-((7^1S,7^2R,E)-1^1,2^6-dimethyl-3-oxo-5^2,5^3-dihydro-1^1H,5^1H-10-oxa-4-aza-5 (2,1)-benzo[d]imidazola-2 (2,4)-pyridina-1 (4,5)-pyrazola-7 (1,2)-cyclopropanacyclodecaphane-5^6-yl)piperazin-1-yl)-3-fluoropiperidin-1-yl)-3-fluoro-6-methylpyridin-2-yl)piperidine-2,6-dione], for which, in test [1], the DC50 was 21 nM and the Dmax came out at 89.3%. In test [2], this molecule registered a 50% degradation concentration (DC50) of 9.57 nM and a Dmax of 57.5%.
